Measurements reported in patent publication US9040458B2, “Safening composition of 6-(trisubstituded phenyl)-4-amino-2-pyridinecarboxylate herbicides and cloquintocet-mexyl for cereal crops” (Dow AgroSciences LLC, priority 2008, dated 2015).

How the values were obtained:
Settings in all cases: 20-22 d
PAPRH (corn poppy) = assay: Postemergence herbicidal activity, greenhouse, visual injury; assay type: in vivo, Papaver rhoeas
Experimental: (§1) Seeds of the desired test plant species were planted in Sun Gro MetroMix® 306 planting mixture, which typically has a pH of 6.0 to 6.8 and an organic matter content of about 30 percent, in plastic pots with a surface area of 103.2 square centimeters (cm^2). When required to ensure good germination and healthy plants, a fungicide treatment and/or other chemical or physical treatment was applied. The plants were grown for 7-36 days (d) in a greenhouse with an approximate […] photoperiod which was maintained at about 18° C. during the day and 17° C. during the night. Nutrients and water were added on a regular basis and supplemental lighting was provided with overhead metal halide 1000-Watt lamps as necessary. The plants were employed for testing when they reached the second or third true leaf stage.
(§2) Weighed amounts of esters (methyl) or salts (TEA [triethylammonium], potassium [K]) of 4-amino-3-chloro-6-(4-chloro-2-fluoro-3-methoxyphenyl)pyridine-2-carboxylic acid (Compound 1) were dissolved in a volume of 97:3 volume/volume (v/v) acetone/dimethylsulfoxide (DMSO) to obtain stock solutions. […] The concentrated stock solutions were diluted with an aqueous mixture of 1.5% v/v of Agri-dex crop oil concentrate to provide the appropriate application rates. Compound requirements are based upon a 12 mL application volume at a rate of 187 liters per hectare (L/ha). Stocks solutions of the safeners were prepared following the same procedure. Spray solutions of the safeners and experimental compound mixtures were prepared by adding the appropriate volume of both stock solutions to the appropriate amount of dilution solution to form a 12 mL spray solution with active ingredients in two-way combinations. Formulated compounds were applied to the plant material with an overhead Mandel track sprayer equipped with 8002E nozzles calibrated to deliver 187 L/ha over an application area of 0.503 square meters (m^2) at a spray height of 18 inches (43 centimeters (cm)) above average plant canopy. Control plants were sprayed in the same manner with the solvent blank.
(§3) The treated plants and control plants were placed in a greenhouse as described above and watered by sub-irrigation to prevent wash-off of the test compounds. After 20-22 d, the condition of the test plants as compared with that of the control plants was determined visually and scored on a scale of 0 to 100 percent where 0 corresponds to no injury and 100 corresponds to complete kill.
(§4) Colby's equation was used to determine the herbicidal effects expected from the mixtures (Colby, S. R., Calculation of the synergistic and antagonistic response of herbicide combinations. Weeds 1967, 15, 20-22.).
(§5) The following equation was used to calculate the expected activity of mixtures containing two active ingredients, A and B: Expected=A+B−(A×B/100)
(§6) A=observed efficacy of active ingredient A at the same concentration as used in the mixture.
(§7) B=observed efficacy of active ingredient B at the same concentration as used in the mixture.

[1] = system: TRZAS = Triticum aestivum (spring wheat); assay: Postemergence herbicidal safening, greenhouse, visual injury; assay type: in vivo
Experimental: as §1, §2, §3, §4, §5, §6, §7

[2] = system: HORVS = Hordeum vulgare (spring barley); assay: as above; assay type: in vivo
Experimental: as §1, §2, §3, §4, §5, §6, §7

[3] = system: LAMPU (purple deadnettle); assay: Postemergence herbicidal activity, greenhouse, visual injury; assay type: in vivo, Lamium purpureum
Experimental: as §1, §2, §3, §4, §5, §6, §7

POLCO (wild buckwheat) = assay: as above; assay type: in vivo, Polygonum convolvulus
Experimental: as §1, §2, §3, §4, §5, §6, §7

[4] = system: GALAP = Galium aparine (cleavers); assay: as above; assay type: in vivo
Experimental: as §1, §2, §3, §4, §5, §6, §7

[5] = system: VIOTR = Viola tricolor (wild pansy); assay: as above; assay type: in vivo
Experimental: as §1, §2, §3, §4, §5, §6, §7

[6] = system: STEME = Stellaria media (common chickweed); assay: as above; assay type: in vivo
Experimental: as §1, §2, §3, §4, §5, §6, §7

[7] = system: MATCH = Matricaria chamomila (scented mayweed); assay: as above; assay type: in vivo
Experimental: as §1, §2, §3, §4, §5, §6, §7

[8] = system: KCHSC = Kochia scoparia (kochia); assay: as above; assay type: in vivo
Experimental: as §1, §2, §3, §4, §5, §6, §7

[9] = system: VERPE = Veronica persica (bird's-eye speedwell); assay: as above; assay type: in vivo
Experimental: as §1, §2, §3, §4, §5, §6, §7

[10] = system: SASKR = Salsola iberica (Russian thistle); assay: as above; assay type: in vivo
Experimental: as §1, §2, §3, §4, §5, §6, §7

O=C(O)COc1ccc(Cl)c2cccnc12 [Cloquintocet-acid, [(5-chloro-8-quinolinyl)oxy]acetic acid]
0%: PAPRH Ob (observed injury) (PAPRH (corn poppy); applied alone at 0.55 g/ha) | PAPRH Ob (observed injury) (PAPRH (corn poppy); applied alone at 1.1 g/ha) | PAPRH Ob (observed injury) (PAPRH (corn poppy); applied alone at 2.2 g/ha) | PAPRH Ob (observed injury) (PAPRH (corn poppy); applied alone at 4.4 g/ha) | TRZAS Ob (observed injury) ([1]; applied alone at 0.55 g/ha) | TRZAS Ob (observed injury) ([1]; applied alone at 1.1 g/ha) | TRZAS Ob (observed injury) ([1]; applied alone at 2.2 g/ha) | TRZAS Ob (observed injury) ([1]; applied alone at 4.4 g/ha) | HORVS Ob (observed injury) ([2]; applied alone at 0.55 g/ha) | HORVS Ob (observed injury) ([2]; applied alone at 1.1 g/ha) | HORVS Ob (observed injury) ([2]; applied alone at 2.2 g/ha) | HORVS Ob (observed injury) ([2]; applied alone at 4.4 g/ha) | LAMPU Ob (observed injury) ([3]; applied alone at 0.55 g/ha) | LAMPU Ob (observed injury) ([3]; applied alone at 1.1 g/ha) | LAMPU Ob (observed injury) ([3]; applied alone at 2.2 g/ha) | LAMPU Ob (observed injury) ([3]; applied alone at 4.4 g/ha)

CCCCCC(C)OC(=O)COc1ccc(Cl)c2cccnc12 (centres unmarked) [Cloquintocet-mexyl, cloquintocet-mexyl]
0%: PAPRH Ob (observed injury) (PAPRH (corn poppy); applied alone at 1.1 g/ha) | PAPRH Ob (observed injury) (PAPRH (corn poppy); applied alone at 2.2 g/ha) | PAPRH Ob (observed injury) (PAPRH (corn poppy); applied alone at 4.4 g/ha) | PAPRH Ob (observed injury) (PAPRH (corn poppy); applied alone at 8.75 g/ha) | PAPRH Ob (observed injury) (PAPRH (corn poppy); applied alone at 17.5 g/ha) | PAPRH Ob (observed injury) (PAPRH (corn poppy); applied alone at 35 g/ha) | PAPRH Ob (observed injury) (PAPRH (corn poppy); applied alone at 70 g/ha) | POLCO Ob (observed injury) (POLCO (wild buckwheat); applied alone at 1.1 g/ha) | POLCO Ob (observed injury) (POLCO (wild buckwheat); applied alone at 2.2 g/ha) | POLCO Ob (observed injury) (POLCO (wild buckwheat); applied alone at 4.4 g/ha) | POLCO Ob (observed injury) (POLCO (wild buckwheat); applied alone at 8.75 g/ha) | POLCO Ob (observed injury) (POLCO (wild buckwheat); applied alone at 17.5 g/ha) | POLCO Ob (observed injury) (POLCO (wild buckwheat); applied alone at 35 g/ha) | POLCO Ob (observed injury) (POLCO (wild buckwheat); applied alone at 70 g/ha) | GALAP Ob (observed injury) ([4]; applied alone at 1.1 g/ha) | GALAP Ob (observed injury) ([4]; applied alone at 2.2 g/ha) | GALAP Ob (observed injury) ([4]; applied alone at 4.4 g/ha) | GALAP Ob (observed injury) ([4]; applied alone at 8.75 g/ha) | GALAP Ob (observed injury) ([4]; applied alone at 17.5 g/ha) | GALAP Ob (observed injury) ([4]; applied alone at 35 g/ha) | GALAP Ob (observed injury) ([4]; applied alone at 70 g/ha) | VIOTR Ob (observed injury) ([5]; applied alone at 1.0937 g/ha) | VIOTR Ob (observed injury) ([5]; applied alone at 1.1 g/ha) | VIOTR Ob (observed injury) ([5]; applied alone at 2.1875 g/ha) | VIOTR Ob (observed injury) ([5]; applied alone at 2.2 g/ha) | VIOTR Ob (observed injury) ([5]; applied alone at 4.375 g/ha) | VIOTR Ob (observed injury) ([5]; applied alone at 4.4 g/ha) | VIOTR Ob (observed injury) ([5]; applied alone at 8.75 g/ha) | VIOTR Ob (observed injury) ([5]; applied alone at 17.5 g/ha) | VIOTR Ob (observed injury) ([5]; applied alone at 35 g/ha) | VIOTR Ob (observed injury) ([5]; applied alone at 70 g/ha) | STEME Ob (observed injury) ([6]; applied alone at 1.1 g/ha) | STEME Ob (observed injury) ([6]; applied alone at 2.2 g/ha) | STEME Ob (observed injury) ([6]; applied alone at 4.4 g/ha) | STEME Ob (observed injury) ([6]; applied alone at 8.75 g/ha) | STEME Ob (observed injury) ([6]; applied alone at 17.5 g/ha) | STEME Ob (observed injury) ([6]; applied alone at 35 g/ha) | STEME Ob (observed injury) ([6]; applied alone at 70 g/ha) | MATCH Ob (observed injury) ([7]; applied alone at 1.0937 g/ha) | MATCH Ob (observed injury) ([7]; applied alone at 1.1 g/ha) | MATCH Ob (observed injury) ([7]; applied alone at 2.1875 g/ha) | MATCH Ob (observed injury) ([7]; applied alone at 2.2 g/ha) | MATCH Ob (observed injury) ([7]; applied alone at 4.375 g/ha) | MATCH Ob (observed injury) ([7]; applied alone at 4.4 g/ha) | MATCH Ob (observed injury) ([7]; applied alone at 8.75 g/ha) | MATCH Ob (observed injury) ([7]; applied alone at 17.5 g/ha) | MATCH Ob (observed injury) ([7]; applied alone at 35 g/ha) | MATCH Ob (observed injury) ([7]; applied alone at 70 g/ha) | KCHSC Ob (observed injury) ([8]; applied alone at 1.0937 g/ha) | KCHSC Ob (observed injury) ([8]; applied alone at 1.1 g/ha) | KCHSC Ob (observed injury) ([8]; applied alone at 2.1875 g/ha) | KCHSC Ob (observed injury) ([8]; applied alone at 2.2 g/ha) | KCHSC Ob (observed injury) ([8]; applied alone at 4.375 g/ha) | KCHSC Ob (observed injury) ([8]; applied alone at 4.4 g/ha) | KCHSC Ob (observed injury) ([8]; applied alone at 8.75 g/ha) | KCHSC Ob (observed injury) ([8]; applied alone at 17.5 g/ha) | KCHSC Ob (observed injury) ([8]; applied alone at 35 g/ha) | KCHSC Ob (observed injury) ([8]; applied alone at 70 g/ha) | VERPE Ob (observed injury) ([9]; applied alone at 1.0937 g/ha) | VERPE Ob (observed injury) ([9]; applied alone at 1.1 g/ha) | VERPE Ob (observed injury) ([9]; applied alone at 2.1875 g/ha) | VERPE Ob (observed injury) ([9]; applied alone at 2.2 g/ha) | VERPE Ob (observed injury) ([9]; applied alone at 4.375 g/ha) | VERPE Ob (observed injury) ([9]; applied alone at 4.4 g/ha) | VERPE Ob (observed injury) ([9]; applied alone at 8.75 g/ha) | VERPE Ob (observed injury) ([9]; applied alone at 17.5 g/ha) | VERPE Ob (observed injury) ([9]; applied alone at 35 g/ha) | VERPE Ob (observed injury) ([9]; applied alone at 70 g/ha) | SASKR Ob (observed injury) ([10]; applied alone at 1.0937 g/ha) | SASKR Ob (observed injury) ([10]; applied alone at 1.1 g/ha) | SASKR Ob (observed injury) ([10]; applied alone at 2.1875 g/ha) | SASKR Ob (observed injury) ([10]; applied alone at 2.2 g/ha) | SASKR Ob (observed injury) ([10]; applied alone at 4.375 g/ha) | SASKR Ob (observed injury) ([10]; applied alone at 4.4 g/ha) | SASKR Ob (observed injury) ([10]; applied alone at 8.75 g/ha) | SASKR Ob (observed injury) ([10]; applied alone at 17.5 g/ha) | SASKR Ob (observed injury) ([10]; applied alone at 35 g/ha) | SASKR Ob (observed injury) ([10]; applied alone at 70 g/ha) | LAMPU Ob (observed injury) ([3]; applied alone at 1.1 g/ha) | LAMPU Ob (observed injury) ([3]; applied alone at 2.2 g/ha) | LAMPU Ob (observed injury) ([3]; applied alone at 4.4 g/ha) | LAMPU Ob (observed injury) ([3]; applied alone at 8.75 g/ha) | LAMPU Ob (observed injury) ([3]; applied alone at 17.5 g/ha) | LAMPU Ob (observed injury) ([3]; applied alone at 35 g/ha) | LAMPU Ob (observed injury) ([3]; applied alone at 70 g/ha)
